Results taken from US8361971B2, “Tablet formulation of ezatiostat” (Telik, Inc., priority 2010, dated 2013).

Tests used:
Format in all cases: physicochemical
[1] = Tablet dissolution (Q at 45 min); conditions: for Dissolution, Mean at 45 min: tablets
Description: Without being bound by theory, a higher dissolution rate relates to a higher amount of the active agent in the gastric fluid, which in turn relates to higher bioavailability of the active agent. A high bioavailability is desired, for example and without limitation, for reducing inter patient variability of drug exposure for a orally administered agent such as ezatiostat hydrochloride. […] The aqueous solubility can be measured in a variety of aqueous solvents, including without limitation, water, 0.9% aqueous NaCl, 5% dextrose for injection, phosphate buffered saline, and generally aqueous solutions having a pH of less than about 5. Such solvents may include suitable buffers and other salts. […]
(§1) Tablets of ansolvate form D, were packaged with and without desiccant (Sorb-It Cannister, 1 gram). Fifty tablets were packaged in a round, white 1500 mL bottle with a screw cap over an induction seal. Impurities were assayed by HPLC. When stored at 25° C./60% RH with desiccant for 3 months, no increase in total impurities was observed. When stored at 40° C./75% RH with desiccant for 3 months, total impurities increased only by 0.3%. When stored at 40° C./75% RH without desiccant for 3 months, total impurities still increased by 1.1%. As tabulated below, the presence of desiccant appears to further increase the stability of the ansolvate form D. Even though the dissolution rate of tablets containing polymorph D from one batch was below specification (<70%) at an initial test as well as after 3 months at 25° C./60% RH with desiccant, the subsequent batches met the required specification.

[2] = Description (appearance) of tablets on storage
Procedure: as §1

[3] = Assay and impurities by HPLC of tablets on storage; design: key to Individual Impurities RRT = 0.74 / Individual Impurities RRT = 0.83 / TLK 236 RRT = 0.88 / Individual Impurities RRT = 0.94 / Individual Impurities RRT = 0.96 / Total impurities / Individual Impurities RRT = 0.80 / Individual Impurities RRT = 0.81 / Individual Impurities RRT = 0.86 / Individual Impurities RRT = 0.99: impurity content in %
Description: As used herein, “impurity” refers to one or more of: TLK 236, another polymorphic form of ezatiostat hydrochloride including without limitation form A, B, C, E, or F, and any other compound other than ezatiostat hydrochloride ansolvate, which may be identified by HPLC. TLK 236 is a monoester derived from the partial hydrolysis of ezatiostat where the phenyl glycine moiety remains esterified.
(§2) As described above, form E converts to form B simply during tableting.
as §1

[4] = Assay and impurities by HPLC of tablets on storage; design: key to Individual Impurities RRT = 0.74 / TLK 236 RRT = 0.88 / Individual Impurities RRT = 0.96 / Total impurities: impurity content in %; conditions: 6 Month at 40° C./75% RH without desiccant, hydrochloride
[5] = Water content of tablets on storage
Procedure: Karl Fischer analyses for water determination were performed on a Mettler Toledo DL39 Karl Fischer titrator. About 10-15 mg of sample was placed in the KF titration vessel containing approximately 100 mL of Hydranal®—Coulomat AD reagent and mixed for 60 seconds to ensure dissolution. The dissolved sample was then titrated by means of a generator electrode which produces iodine by electrochemical oxidation. […]
as §1

[6] = X-ray diffraction, polymorphic form in tablets; conditions: for X-ray Diffraction: tablets
Procedure: X-ray powder diffraction (XRPD) analyses were performed on a Shimadzu XRD-6000 X-ray powder diffractometer using Cu Kα radiation from a long fine focus X-ray tube, operated at 40 kV, 40 mA. The divergence and scattering slits were set at 1° and the receiving slit was set at 0.15 mm. Diffracted radiation was detected by a NaI scintillation detector. A θ-2θ continuous scan at 3°/min (0.4 sec/0.02° step) from 2.5°-40° 2θ was used. A silicon standard was analyzed to check alignment of the instrument. Data were collected and analyzed using XRD-6000 v.4.1 software.
Stress experiments: solids were stressed under different temperature and/or relative humidity (RH) environments for a measured time period. Specific RH values were achieved by placing the sample inside sealed chambers containing saturated salt solutions. Samples were analyzed by XRPD immediately after removal from the stress environment.
as §2, §1

[7] = 3 Month at 40° C./75% RH with desiccant
[8] = 3 Month at 40° C./75% RH without desiccant, hydrochloride
[9] = 3 Month at 40° C./75% RH without desiccant, listed as Form D Ansolvate, hydrochloride
[10] = 6 Month at 40° C./75% RH without desiccant, hydrochloride
[11] = Initial, listed as Form D Ansolvate, hydrochloride
[12] = 3 Month at 25° C./60% RH with desiccant
[13] = 3 Month at 40° C./75% RH without desiccant

With `CCOC(=O)[C@@H](N)CCC(=O)N[C@@H](CSCc1ccccc1)C(=O)N[C@@H](C(=O)OCC)c1ccccc1.Cl` [Polymorph Form D, ezatiostat hydrochloride] the aqueous dissolution rate ([1]; as part of a tablet, measured in 0.1 molar HCl) was “higher aqueous dissolution rate than polymorphic form E”, the “Dissolution, Mean at 45 min” value ([1]; 3 Month at 25° C./60% RH with desiccant, listed as Form D Ansolvate, hydrochloride) was “Mean = 46 % of label claim” and the “Dissolution, Mean at 45 min” value ([1]; 3 Month at 25° C./60% RH with desiccant, listed as polymorph D, hydrochloride) was < 70 % of label claim. The “Dissolution, Mean at 45 min” value [1, 7] was “Mean = 76 % of label claim”, the “Dissolution, Mean at 45 min” value [1, 8] was “Mean = 88 % of label claim” and the “Dissolution, Mean at 45 min” value [1, 9] was “Mean = 88 % of label claim”. For the same compound, the “Dissolution, Mean at 45 min” value [1, 10] was “Mean = 81 % of label claim”, the “Dissolution, Mean at 45 min” value ([1]; Initial, hydrochloride) was “Mean = 51 % of label claim” and the “Dissolution, Mean at 45 min” value [1, 11] was “Mean = 51 % of label claim”. The “Dissolution, Mean at 45 min” value ([1]; Initial, listed as polymorph D, hydrochloride) was < 70 % of label claim, the Description [2, 12] was “White round” and the Description [2, 7] was “Off-white”. For the same compound, the Description [2, 13] was “Off-white”, the Description [2, 10] was “Brown round” and the Description ([2]; Initial) was “White round”. The “Assay (HPLC)” value [3, 12] was 99.7 % Label Claim, the “Individual Impurities RRT = 0.74/0.72” value [3, 12] was 0.16 and the “Individual Impurities RRT = 0.96” value [3, 12] was 0.19. For the same compound, the “TLK 236 RRT = 0.88” value [3, 12] was 0.34, the Total impurities [3, 12] was 0.7 and the “Assay (HPLC)” value [3, 7] was 100.8 % Label Claim. For the same compound, the “Individual Impurities RRT = 0.74/0.72” value [3, 7] was 0.16, the “Individual Impurities RRT = 0.83” value [3, 7] was 0.09 and the “Individual Impurities RRT = 0.94” value [3, 7] was 0.06. The “Individual Impurities RRT = 0.96” value [3, 7] was 0.19, the “TLK 236 RRT = 0.88” value [3, 7] was 0.53 and the Total impurities [3, 7] was 1.0. The “Individual Impurities RRT = 0.74/0.72” value [3, 13] was 0.18, the “Assay (HPLC)” value [3, 8] was 100.3 % Label Claim and the “Individual Impurities RRT = 0.74” value [3, 8] was 0.21. The “Individual Impurities RRT = 0.83” value [3, 8] was 0.07, the “Individual Impurities RRT = 0.94” value [3, 8] was 0.07 and the “Individual Impurities RRT = 0.96” value [3, 8] was 0.19. For the same compound, the “TLK 236 RRT = 0.88” value [3, 8] was 1.33, the Total impurities [3, 8] was 1.9 and the “Assay (HPLC)” value [3, 9] was 100.3 % Label Claim. The “Individual Impurities RRT = 0.83” value [3, 9] was 0.08, the “Individual Impurities RRT = 0.94” value [3, 9] was 0.07 and the “Individual Impurities RRT = 0.96” value [3, 9] was 0.18. For the same compound, the “TLK 236 RRT = 0.88” value [3, 9] was 1.3, the Total impurities [3, 9] was 1.8 and the “Individual Impurities RRT = 0.83” value [3, 10] was 0.09. The “increase in total impurities” value ([3]; 25° C./60% RH with desiccant for 3 months) was “no increase”, the “increase in total impurities” value ([3]; 40° C./75% RH with desiccant for 3 months) was 0.3% and the “increase in total impurities” value ([3]; 40° C./75% RH without desiccant for 3 months) was 1.1%. The “Individual Impurities RRT = 0.74/0.72” value ([3]; Initial) was 0.21, the “Assay (HPLC)” value ([3]; Initial, hydrochloride) was 101.4 % Label Claim and the “Individual Impurities RRT = 0.74” value ([3]; Initial, hydrochloride) was 0.21. The “Individual Impurities RRT = 0.96” value ([3]; Initial, hydrochloride) was 0.18, the “TLK 236 RRT = 0.88” value ([3]; Initial, hydrochloride) was 0.35 and the Total impurities ([3]; Initial, hydrochloride) was 0.7. The “Assay (HPLC)” value [3, 11] was 101.4 % Label Claim, the “Individual Impurities RRT = 0.96” value [3, 11] was 0.18 and the “TLK 236 RRT = 0.88” value [3, 11] was 0.35. For the same compound, the Total impurities [3, 11] was 0.7, the “Assay (HPLC)” value [4] was 96.5 % Label Claim and the “Individual Impurities RRT = 0.59/0.62” value [4] was 0.08. For the same compound, the “Individual Impurities RRT = 0.74” value [4] was 0.20, the “Individual Impurities RRT = 0.96” value [4] was 0.23 and the “TLK 236 RRT = 0.88” value [4] was 2.07. The Total impurities [4] was 2.7, the “Water Content” value [5, 12] was 0.5% and the “Water Content” value [5, 7] was 0.6%. For the same compound, the “Water Content” value [5, 8] was 0.8%, the “Water Content” value [5, 9] was 0.8% and the “Water Content” value [5, 10] was 0.8%. For the same compound, the “Water Content” value ([5]; Initial, hydrochloride) was 0.9%, the “Water Content” value [5, 11] was 0.9% and the “polymorphic conversion on storage” value ([6]; 40° C. and 75% RH without a desiccant, form D 6 months, form E 3 months, listed as ansolvate form D, hydrochloride) was “resistance to conversion to a solvate form”. For the same compound, the “X-ray Diffraction” value [6, 12] was “Polymorph D”, the “X-ray Diffraction” value [6, 7] was “Polymorph D” and the “X-ray Diffraction” value [6, 8] was “Polymorph D”. The “X-ray Diffraction” value [6, 9] was “Polymorph D”, the “X-ray Diffraction” value [6, 10] was “Polymorph D” and the “X-ray Diffraction” value ([6]; Initial, hydrochloride) was “Polymorph D”. The “X-ray Diffraction” value [6, 11] was “Polymorph D”.
